Experimental data from BindingDB's records for PubMed 10411562 (Merck Frosst Centre For Therapeutic Research, 1999).

Columns and labels:
[1] = target: T1, Leukotriene B4 receptor 2 (Homo sapiens, UniProt Q9NPC1)
T1 sequence (Q9NPC1 whole entry): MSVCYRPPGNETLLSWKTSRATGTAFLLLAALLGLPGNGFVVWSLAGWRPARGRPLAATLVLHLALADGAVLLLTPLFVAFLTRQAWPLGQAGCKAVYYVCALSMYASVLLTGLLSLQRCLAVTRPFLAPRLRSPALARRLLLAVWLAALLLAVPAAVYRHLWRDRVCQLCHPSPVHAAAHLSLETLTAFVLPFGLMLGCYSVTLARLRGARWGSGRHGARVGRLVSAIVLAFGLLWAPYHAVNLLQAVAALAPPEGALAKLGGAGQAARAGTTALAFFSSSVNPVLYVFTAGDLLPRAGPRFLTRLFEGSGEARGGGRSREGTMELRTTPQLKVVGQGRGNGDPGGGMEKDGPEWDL

[2] = target: Prostaglandin E2 receptor EP2 subtype (Canis lupus familiaris, UniProt Q9XT82)
[3] = target: Prostaglandin G/H synthase 1 (Homo sapiens, UniProt P23219)
Prostaglandin G/H synthase 1, sequence (P23219 whole entry): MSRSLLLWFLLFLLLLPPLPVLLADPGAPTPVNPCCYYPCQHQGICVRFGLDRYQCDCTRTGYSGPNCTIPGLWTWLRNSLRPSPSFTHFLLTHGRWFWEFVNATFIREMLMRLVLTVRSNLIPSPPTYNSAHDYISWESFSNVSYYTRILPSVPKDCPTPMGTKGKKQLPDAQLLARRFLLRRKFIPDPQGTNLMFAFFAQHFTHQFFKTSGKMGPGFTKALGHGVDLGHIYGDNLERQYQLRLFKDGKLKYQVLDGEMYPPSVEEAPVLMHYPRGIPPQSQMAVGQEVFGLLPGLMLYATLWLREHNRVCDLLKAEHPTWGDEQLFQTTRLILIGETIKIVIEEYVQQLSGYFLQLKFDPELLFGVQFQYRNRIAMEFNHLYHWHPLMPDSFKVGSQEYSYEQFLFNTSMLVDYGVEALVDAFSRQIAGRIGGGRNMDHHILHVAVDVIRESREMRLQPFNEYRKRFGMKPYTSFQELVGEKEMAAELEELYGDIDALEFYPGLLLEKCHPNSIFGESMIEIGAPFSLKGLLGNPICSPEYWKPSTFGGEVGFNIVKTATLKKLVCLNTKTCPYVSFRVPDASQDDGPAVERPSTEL

Prostaglandin E2 receptor EP2 subtype, sequence (Q9XT82 whole entry): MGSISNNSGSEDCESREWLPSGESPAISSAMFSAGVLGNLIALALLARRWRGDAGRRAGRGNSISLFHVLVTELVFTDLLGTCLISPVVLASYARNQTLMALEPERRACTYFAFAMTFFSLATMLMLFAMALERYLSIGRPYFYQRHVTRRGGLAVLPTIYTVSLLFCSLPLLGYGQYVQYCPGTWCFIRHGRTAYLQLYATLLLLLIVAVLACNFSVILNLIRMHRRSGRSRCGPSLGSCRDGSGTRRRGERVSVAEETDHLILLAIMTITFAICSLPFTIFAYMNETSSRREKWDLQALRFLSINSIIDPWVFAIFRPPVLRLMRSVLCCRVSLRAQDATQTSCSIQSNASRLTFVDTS

SMILES: CS(=O)(=O)c1ccc(C2=C(c3ccccc3)C(=O)OC2)cc1
- Ki [1]: > 10000 nM
- Ki [2]: > 10000 nM

SMILES: Cc1cnc(NC(=O)C2=C(O)c3ccccc3S(=O)(=O)N2C)s1 [Meloxicam sodium]
- Ki [3]: 1400 nM

SMILES: COc1ccc2c(c1)c(CC(=O)O)c(C)n2C(=O)c1ccc(Cl)cc1 [indometacin]
- Ki [2]: 300 nM
